Source: publication PMC9321810, “Antiviral Cyclopropane Acids from Deep-Sea-Derived Fungus Aspergillus sydowii” (Marine Drugs, 2022)
Where two headings read alike, the source gives them in different places.

What was measured:
[1] = in vitro; conditions: dog
[2] = test system: influenza virus A/WSN/33 (H1N1); test: cytopathic effect (CPE) reduction assay, anti-influenza virus; type: cell-based, influenza A/WSN/33 (H1N1)
[3] = H1N1|WSN, MDCK, 40 h, read-out: IC50, inhibitory activity against influenza virus A/WSN/33 (H1N1), infected MDCK cells, MOI = 0.1, 40 h incubation, CellTiter-Glo readout

Structure (SMILES) | CC50 at 40 h [1] [µM] | IC50 [2, 3] [µM] | IC50 ([2]; read-out: IC50, inhibitory activity against influenza virus A/WSN/33 (H1N1), infected MDCK cells, MOI = 0.1, 40 h incubation, CellTiter-Glo readout) [µM]
COC(=O)C(O)CC(=O)C1(C)C(C)C1CCC(C)=O (centres unmarked) [Compound 1, sydocyclopropane A] | > 100 | 26.7 ± 0.9 | 
CC(=O)C1(C)C(C)C1CC(=O)O (centres unmarked) [Compound 2, Sydocyclopropane B] | > 100 | 29.5 ± 1.4 | 
CC(=O)CCC1C(C)C1(C)C(=O)O (centres unmarked) [Compound 3, sydocyclopropane C] | > 100 | 77.2 ± 0.5 | 
CC(=O)CCC1C(C)C1(C)C(=O)O (centres unmarked) [Compound 4, sydocyclopropane D] |  |  | 66.4 ± 1.7
CC(=O)C=CC1C(C)C1(C)C(C)=O (centres unmarked) [Compound 5, hamavellone B] | > 100 | 35.8 ± 3.2 | 
CCOC(=O)C1=C[C@@H](OC(CC)CC)[C@H](NC(C)=O)[C@@H](N)C1 [OSV, oseltamivir, reference compound] | > 100 | 18.1 ± 1.2 | 
